Data set [1] is described as follows: Stability of treprostinil derivative in ethanol/water solutions of different pH (light irradiation, 40°C, 60°C). It counts as physicochemical. As to the method:
1 mol/L hydrochloric acid and/or sodium hydroxide aqueous solution and distilled water were used to prepare 100 mL solutions with different pH values (3.0, 4.0, 5.0, 6.0, 7.0, 8.0, 9.0 and 10.0) for later use. 640 mg of compound Ia-2 was taken and added with 640 mL of 90% ethanol as a diluent to completely dissolve the compound, and then prepared into 1 mg/mL sample solution 1 for later use. • (1) […] of 90% ethanol, the sample solution 1 and 80 mL of each aqueous solution with different pH value (3.0, 5.0, 7.0 or 9.0) were taken and mixed evenly (ethanol: water =1.5: 1), and filled 2 mL per vial to obtain total 90 vials of samples, and the samples were divided into three groups equally for stability examination under the condition of light-irradiation, high-temperature of 40°C or high-temperature of 60°C. The samples of the two high-temperature stability examination groups were packaged in aluminum foil bags, 10 vials per bag; and the samples of the light-irradiation stability examination group were packaged in transparent bags, 10 vials per bag. • (2) 80 mL of 90% ethanol, the sample solution 1 and 80 mL of each aqueous solution with different pH value (4.0, 6.0, 8.0 or 10.0) were taken and mixed evenly (ethanol: water =2: 1), and then filled, grouped and packaged as above.
After the above samples were placed under conditions as described in Table-1, 15 vials of samples were taken from each group at each detection time point for detection for each pH value solution, comprising: the content of compound, the content of related substances (impurities) and liquid properties (whether there was turbidity, stratification or color change). The content of compound and the content of related substances were calculated by calculating the percentage of area occupied by the main ingredient through an area normalization method. Table-1 Placement conditions for stability examination of compound Ia-2

For the next data set, the target named is T1, EP2 receptor (Homo sapiens, UniProt P43116).
T1 construct: purchased Merck HTS185M
In words: Competitive binding to EP2 receptor against radiolabeled ligand 3H-PGE2. Conditions: 8 concentrations from 10 µM, 10-fold dilutions. On the procedure:
This experiment was carried out in 96-well plates to evaluate the binding affinity of the compounds of the present invention (Ia-1, Ia-2 and Ia-3) to the prostaglandin EP2 receptor by testing their ability of competitive binding to the EP2 receptor with the radiolabeled ligand ^3H-PGE2. Treprostinil was used as control. MicroBeta2 was used to detect the number of ^3H captured, and Prism software was used to analyze data. The EP2 film (Merck, Cat# HT[…], batch number 2121326) was diluted with a buffer (50 mM Hepes, PH=7.4, 5 mM MgCl2, 1 mM CaCl2, 0.5% BSA) to a final concentration of 75 μg/mL. ^3H-PGE2 was diluted to 15 nM. Test compound and control compound solutions with an initial concentration of 10 μM were prepared, and subjected to 10-fold continuous gradient dilution, with a total of 8 concentrations for testing. 5%DMSO was used as a solvent control group. 1 μL of each compound solution was added into a corresponding position in the 96-well test plate, and each well was added with 50 μL of the EP2 film (about 3.75 μg/well), and added with 50 μ L of ^3H-PGE2. Then, the well plate was sealed, and incubated with shaking at 300 rpm at room temperature for 2 hours. After finishing the incubation, GF/C plates were filtered with Perkin Elmer Filtermate Harvester, and then each plate was washed with cold eluent for 4 times, and dried at 50°C for 1 hour. After drying, bottoms of wells of the filter plate were sealed with a PerkinElmer Unifilter-96 backing tape. 50 μL of Perkin Elmer Microscint O was added. The top of the filter plate was sealed with Perkin Elmer TopSeal-A sealing film. The number of ^3H captured was detected by MicroBeta2.

For a further data set, the system named is SD rats. In words: U46619-induced rat acute pulmonary arterial pressure rise model, low-dose airway nebulized administration (RVSP). Conditions: 1 hour after low-dose airway nebulized administration (about 3 µg/kg, equimolar). It counts as in vivo. From the text:
In this experiment, airway nebulized administration dosages of the compounds were about 1/7 of airway nebulized administration dosages in Experimental Example 5. By using a U46619-induced rat acute pulmonary arterial pressure rise model, antihypertensive effects of the compounds of the present invention after airway nebulized administration were further verified by reducing the administration dosages.
A model construction method was the same as that described in Experimental Example 5. In this experiment, dosages of groups were as follows: the dosage of compound C16-TR group was 3 µg/kg, and the dosages of equimolar compounds Ia-1, Ia-2 and Ia-3 were 3.0 µg/kg, 3.2 µg/kg and 3.3 µg/kg respectively.
The SD rats were anesthetized and then administered by airway nebulization, and then the basic right ventricular systolic pressure (RVSP) was measured by right cardiac catheterization. The SD rats were intravenously injected with U46619 (25 µg /kg) at 1 hour after airway nebulized administration of each compound, a peak value of RVSP rise after injection with U46619 was observed and recorded, and the inhibition percentage on the RVSP rise was calculated by comparing with the basic RVSP value. The number of experimental animals in each group was 1~2.

T1 sequence (P43116 whole entry): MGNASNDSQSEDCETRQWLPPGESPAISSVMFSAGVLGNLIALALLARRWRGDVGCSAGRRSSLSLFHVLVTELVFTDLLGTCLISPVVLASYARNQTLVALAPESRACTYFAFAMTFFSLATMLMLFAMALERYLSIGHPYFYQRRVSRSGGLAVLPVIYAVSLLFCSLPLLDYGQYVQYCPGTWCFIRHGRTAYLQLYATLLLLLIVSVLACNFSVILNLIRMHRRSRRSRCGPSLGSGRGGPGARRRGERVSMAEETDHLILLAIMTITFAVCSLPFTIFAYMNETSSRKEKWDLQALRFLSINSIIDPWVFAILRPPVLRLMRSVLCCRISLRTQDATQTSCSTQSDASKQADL

On to `CCCCC[C@H](O)CC[C@@H]1[C@H]2Cc3cccc(OCC(=O)OCCCCCCCCOCCCCc4ccccc4)c3C[C@H]2C[C@H]1O` [Compound Ia-2], for which the content of compound entry in data set [1] (each group (pH 3-10), placement at 40°C for 30 days) is given as “higher than 80%”; in data set [1] (ethanol: water 1.5:1 or 2.0:1, different pH values, after placement for 10 days), “higher than 95%”; in data set [1] (solution with pH=5.0~9.0, placement at 60°C for 30 days) it was “higher than 90%”. Also, the ethyl ester impurities in data set [1] (extreme conditions: pH=3, 60°C for 30 days, pH=10, 40°C for 30 days or 60°C more than 10 days) is reported as 8.0~9.0%; in data set [1] (high-temperature placement, other conditions) it was “less than 4.0%”; in data set [1] (light irradiation, each group, after 10 days), “less than 1.80%”. Besides, on EP2 receptor, the “binding to the EP2 receptor (competition with 3H-PGE2)” value is reported as “no detectable binding”. Also, the “Inhibition percentage on RVSP rise (%) (mean)” value in the data set with SD rats came to 65.78%.

For the origin of these results see patent publication EP4741374A1, “TREPROSTINIL DERIVATIVE, AND PREPARATION METHOD THEREFOR AND USE THEREOF” (CF PharmTech HongKong Limited, priority 2023, dated 2025).
